pIC50: −log10 of the molar value.

The target in this assay is Human complement C1s enzyme (Homo sapiens (Human), UniProt P09871). The assay is described as follows: Human C1s enzyme assay. It is filed as biochemical. The note with it: Human complement C1s enzyme 1.16 nM, substrate Z-L-Lys-SBzl; assay of Example 3; read-out: IC50 (Stars). In short, it runs like this: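 Purified serum-derived human C1s (1.16 nM final) preincubated 5 min at room temperature with compound in 50 mM Tris, 1 M NaCl, pH 7.5. Z-L-Lys-SBzl thioester substrate and DTNB added (100 μM each, final); A405 read every 30 s for 30 min. IC50 from nonlinear regression of reaction rates against compound concentration.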
Human complement C1s enzyme, sequence (P09871 438-688 limits assumed): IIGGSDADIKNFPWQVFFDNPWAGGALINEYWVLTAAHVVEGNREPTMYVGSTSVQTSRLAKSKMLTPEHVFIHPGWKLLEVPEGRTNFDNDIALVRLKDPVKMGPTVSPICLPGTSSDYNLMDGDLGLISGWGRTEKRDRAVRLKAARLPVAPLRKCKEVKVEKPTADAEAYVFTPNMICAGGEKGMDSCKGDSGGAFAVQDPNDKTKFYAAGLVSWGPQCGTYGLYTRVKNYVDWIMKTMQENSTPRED
Human complement C1s enzyme, sequence (P09871 16-437 partner limits assumed): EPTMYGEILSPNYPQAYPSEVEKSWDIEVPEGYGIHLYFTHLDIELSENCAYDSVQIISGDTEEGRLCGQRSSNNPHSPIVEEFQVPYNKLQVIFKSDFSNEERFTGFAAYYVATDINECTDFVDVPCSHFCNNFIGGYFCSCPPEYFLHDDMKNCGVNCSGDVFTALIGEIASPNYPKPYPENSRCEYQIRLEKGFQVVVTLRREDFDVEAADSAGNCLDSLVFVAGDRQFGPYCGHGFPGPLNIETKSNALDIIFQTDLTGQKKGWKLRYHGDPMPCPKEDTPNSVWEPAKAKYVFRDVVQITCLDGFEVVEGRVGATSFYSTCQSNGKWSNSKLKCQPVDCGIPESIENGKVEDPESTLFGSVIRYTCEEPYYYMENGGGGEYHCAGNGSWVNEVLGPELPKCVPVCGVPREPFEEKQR
On to `COC[C@@]1(F)C[C@@H](C(=O)N[C@H](CO)c2cc(C(=N)N)cs2)N(C(=O)CNC(=O)c2ccc3c(c2)-c2ccccc2C3(F)F)C1` [Compound 408, (2S,4R)—N—((R)-1-(4-carbamimidoylthiophen-2-yl)-2-hydroxyethyl)-1-((9,9-difluoro-9H-fluorene-3-carbonyl)glycyl)-4-fluoro-4-(methoxymethyl)pyrrolidine-2-carboxamide], for which the pIC50 (in general, the negative decadic logarithm of the IC50, by convention in mol/L) was more than 7.00.

On to `COC[C@@]1(F)C[C@@H](C(=O)N[C@H](CO)c2cc(C(=N)N)cs2)N(C(=O)CNC(=O)c2ccc3c(c2)-c2ccccc2C3(C)C)C1` [Compound 409, (2S,4R)—N—((R)-1-(4-carbamimidoylthiophen-2-yl)-2-hydroxyethyl)-1-((9,9-dimethyl-9H-fluorene-3-carbonyl)glycyl)-4-fluoro-4-(methoxymethyl)pyrrolidine-2-carboxamide], for which the pIC50 is more than 7.00. For `C[C@@H](NC(=O)[C@@H]1C[C@@H](c2nccs2)CN1C(=O)CNC(=O)c1ccc(Oc2ccc(F)cc2)cc1)c1cc(C(=N)N)cs1` [Compound 412, (2S,4R)—N—((R)-1-(4-carbamimidoylthiophen-2-yl)ethyl)-1-((4-(4-fluorophenoxy)benzoyl)glycyl)-4-(thiazol-2-yl)pyrrolidine-2-carboxamide], the pIC50 is more than 7.00. Under `CC1(C)c2ccccc2-c2cc(C(=O)NCC(=O)N3C[C@H](OC(F)F)C[C@H]3C(=O)N[C@H](CO)c3cc(C(=N)N)cs3)ccc21` [Compound 413, (2S,4R)—N—((R)-1-(4-carbamimidoylthiophen-2-yl)-2-hydroxyethyl)-4-(difluoromethoxy)-1-((9,9-dimethyl-9H-fluorene-3-carbonyl)glycyl) pyrrolidine-2-carboxamide] stands more than 7.00; under `C[C@@H](NC(=O)[C@@H]1C[C@]2(COCCCCN)C[C@@H]2N1C(=O)CNC(=O)c1ccc2c(c1)-c1ccccc1C2(F)F)c1cc(C(=N)N)cs1` [Compound 414, (1S,3S,5R)-5-((4-aminobutoxy)methyl)-N—((R)-1-(4-carbamimidoylthiophen-2-yl)ethyl)-2-((9,9-difluoro-9H-fluorene-3-carbonyl)glycyl)-2-azabicyclo[3.1.0]hexane-3-carboxamide], more than 7.00.

As to `C[C@@H](NC(=O)[C@@H]1C[C@]2(COCCCCN(C)C)C[C@@H]2N1C(=O)CNC(=O)c1ccc2c(c1)-c1ccccc1C2(F)F)c1cc(C(=N)N)cs1` [Compound 415, (1S,3S,5R)—N—((R)-1-(4-carbamimidoylthiophen-2-yl)ethyl)-2-((9,9-difluoro-9H-fluorene-3-carbonyl)glycyl)-5-((4-(dimethylamino)butoxy)methyl)-2-azabicyclo[3.1.0]hexane-3-carboxamide], the pIC50 was more than 7.00. Turning to `C[C@@H](NC(=O)[C@@H]1CC(c2ncco2)CN1C(=O)CNC(=O)c1ccc2c(c1)-c1ccccc1C2(F)F)c1cc(C(=N)N)cs1` (stereo partly drawn) [Compound 416, (S)—N—((R)-1-(4-carbamimidoylthiophen-2-yl)ethyl)-1-((9,9-difluoro-9H-fluorene-3-carbonyl)glycyl)-4-(oxazol-2-yl)pyrrolidine-2-carboxamide], the pIC50 is more than 7.00. In the case of `CC1c2ccccc2-c2cc(C(=O)NCC(=O)N3C[C@@](F)(CF)C[C@H]3C(=O)N[C@H](C)c3cc(C(=N)N)cs3)ccc21` (stereo partly drawn) [Compound 417, (2S,4R)—N—((R)-1-(4-carbamimidoylthiophen-2-yl)ethyl)-4-fluoro-4-(fluoromethyl)-1-((9-methyl-9H-fluorene-3-carbonyl)glycyl)pyrrolidine-2-carboxamide], the pIC50 is more than 7.00. Consider `COC[C@@]1(F)C[C@@H](C(=O)N[C@H](C)c2cc(C(=N)N)cs2)N(C(=O)CNC(=O)c2ccc3c(c2)-c2ccccc2C3C)C1` (stereo partly drawn) [Compound 418, (2S,4R)—N—((R)-1-(4-carbamimidoylthiophen-2-yl)ethyl)-4-fluoro-4-(methoxymethyl)-1-((9-methyl-9H-fluorene-3-carbonyl)glycyl)pyrrolidine-2-carboxamide], for which the pIC50 was more than 7.00. `CC1c2ccccc2-c2cc(C(=O)NCC(=O)N3C[C@H](S(C)(=O)=O)C[C@H]3C(=O)N[C@H](C)c3cc(C(=N)N)cs3)ccc21` (stereo partly drawn) [Compound 419, (2S,4R)—N—((R)-1-(4-carbamimidoylthiophen-2-yl)ethyl)-1-((9-methyl-9H-fluorene-3-carbonyl)glycyl)-4-(methylsulfonyl)pyrrolidine-2-carboxamide]: the pIC50 was more than 7.00. On to `C[C@@H](NC(=O)[C@@H]1C[C@]2(Cc3ncno3)C[C@@H]2N1C(=O)CNC(=O)c1ccc2c(c1)-c1ccccc1C2(F)F)c1cc(C(=N)N)cs1` [Compound 420, (1S,3S,5S)-5-((1,2,4-oxadiazol-5-yl)methyl)-N—((R)-1-(4-carbamimidoylthiophen-2-yl)ethyl)-2-((9,9-difluoro-9H-fluorene-3-carbonyl)glycyl)-2-azabicyclo[3.1.0]hexane-3-carboxamide], for which the pIC50 is more than 7.00. For the compound `CC1c2ccccc2-c2cc(C(=O)NCC(=O)N3C[C@H](OC(F)F)C[C@H]3C(=O)N[C@H](C)c3cc(C(=N)N)cs3)ccc21` (stereo partly drawn) [Compound 421, (2S,4R)-N-((R)-1-(4-carbamimidoylthiophen-2-yl)ethyl)-4-(difluoromethoxy)-1-((9-methyl-9H-fluorene-3-carbonyl)glycyl) pyrrolidine-2-carboxamide], the pIC50 is more than 7.00. For the compound `C[C@@H](NC(=O)[C@@H]1C[C@]2(COCCCN(C)C)C[C@@H]2N1C(=O)CNC(=O)c1ccc2c(c1)-c1ccccc1C2(F)F)c1cc(C(=N)N)cs1` [Compound 422, (1S,3S,5R)-N-((R)-1-(4-carbamimidoylthiophen-2-yl)ethyl)-2-((9,9-difluoro-9H-fluorene-3-carbonyl)glycyl)-5-((3-(dimethylamino)propoxy)methyl)-2-azabicyclo[3.1.0]hexane-3-carboxamide], the pIC50 is more than 7.00.

As for `N=C(N)c1c[nH]c(CNC(=O)[C@@H]2CC3(CN2C(=O)CNC(=O)c2ccc4c(c2)-c2ccccc2C4(F)F)OCCO3)c1` [Compound 423, (S)-N-((4-carbamimidoyl-1H-pyrrol-2-yl)methyl)-7-((9,9-difluoro-9H-fluorene-3-carbonyl)glycyl)-1,4-dioxa-7-azaspiro[4.4]nonane-8-carboxamide], the pIC50 is more than 7.00.

Values taken from US20250346585A1 (Alexion Pharmaceuticals, Inc., priority 2022, published 2025).
